Measurements: BindingDB's records for doi:10.1016/s0014-2999(98)00241-6 (Mcgill University, 1998)

Target: Norepinephrine transporter (Rattus norvegicus, UniProt Q9JIA2)

Row | Compound | Ki [nM]
1 | COCCCC/C(=N\OCCN)c1ccc(C(F)(F)F)cc1 [(1E)-5-methoxy-1-[4-(trifluoromethyl)phenyl]pentan-1-one O-(2-aminoethyl)oxime] | 1360
2 | c1ccc2c(CCC3CCNCC3)c[nH]c2c1 | 2760
